Test results taken from patent US6302837A, “Benzothiophene, benzofuran and indole compounds” (Adir et Compagnie, priority 1999, dated 2001).

These compounds were tested against recombinant active human PAI-1 (Homo sapiens, UniProt P05121) (assay: Inhibition of the activity of PAI-1 in vitro (fibrin clot breakdown, turbidity)). Conditions: absorbance two hours after start of fibrin formation, 50 mM phosphate buffer pH 7.4, tissue plasminogen activator, fibrinogen, thrombin, read-out: IC50 (concentration of product that inhibits PAI-1 activity by 50%).
Chain of recombinant active human PAI-1 (P05121 24-402): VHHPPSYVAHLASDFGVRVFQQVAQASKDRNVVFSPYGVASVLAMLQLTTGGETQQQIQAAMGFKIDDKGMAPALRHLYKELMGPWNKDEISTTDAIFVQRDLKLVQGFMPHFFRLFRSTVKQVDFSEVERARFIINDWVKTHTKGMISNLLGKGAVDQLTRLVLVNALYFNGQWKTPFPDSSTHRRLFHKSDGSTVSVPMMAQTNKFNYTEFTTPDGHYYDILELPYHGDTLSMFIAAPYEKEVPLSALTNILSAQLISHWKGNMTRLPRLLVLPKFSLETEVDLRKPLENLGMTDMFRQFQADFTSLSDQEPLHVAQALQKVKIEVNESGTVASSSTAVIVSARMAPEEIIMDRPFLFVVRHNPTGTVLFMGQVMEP
Type: biochemical
Protocol: Inhibition of the activity of PAI-1 was effected in vitro in microplate wells in which the formation and then breakdown of a fibrin clot is monitored continuously by measurement of its turbidity using a spectrophotometer. To do so, using, as diluent, a 50 mM phosphate buffer pH 7.4 containing 0.05% of bovine serum albumin, […] of the inhibitor is placed in the presence of 50 μl of a 2 nM solution of recombinant active human PAI-1 for 5 minutes at ambient temperature. 50 μl of a 0.42 nM solution of tissue plasminogen activator, 50 μl of an 800 nM solution of human plasminogen and 50 μl of a 2 g/liter solution of fibrinogen are then added and the fibrin formation is triggered by the addition of 50 μl of 14 nM purified human thrombin. In the absence of the product, inhibition of breakdown two hours after the start of fibrin formation is measured by the absorbance of the clot and represents 100% of the PAI-1 activity. In the absence of the product and of PAI-1, breakdown is measured by the absorbance of the broken-down clot and represents 0% of the PAI-1 activity. The concentration of product that inhibits PAI-1 activity by 50% is determined by measuring the absorbance of the clot two hours after fibrin formation in the presence of PAI-1 and of an increasing concentration of the product.

Q: `O=C(O)/C(=C/c1sc2cc(OCc3ccc(-c4ccccc4)cc3)c(OCc3ccc(-c4ccccc4)cc3)cc2c1Oc1cccnc1)c1ccncc1` [Example 10] was tested. Which IC50 did it give?
A: Its IC50 is 530 nM.

Q: `O=C(O)/C(=C/c1sc2cc(OCc3ccc(-c4ccccc4)cc3)c(OCc3ccc(-c4ccccc4)cc3)cc2c1Oc1ccc(Cl)cc1)c1ccncc1` [Example 2, (E)-3-[5,6-Bis-([1,1'-biphenyl]-4-ylmethoxy)-3-(4-chlorophenoxy)-benzo[b]thiophen-2-yl]-2-(4-pyridyl)2-propenoic acid] was tested. Which IC50 did it give?
A: Its IC50 is 130 nM.

Q: With `O=C(O)/C(=C/c1sc2cc(OCc3ccc(-c4ccccc4)cc3)c(OCc3ccc(-c4ccccc4)cc3)cc2c1Oc1ccccc1)c1ccncc1` [Example 26, (E)-3-[5,6-Bis([1,1'-biphenyl]-4-ylmethoxy)-3-phenoxy-benzo[b]thiophen-2-yl]-2-(4-pyridyl)-2-propenoic acid] as the compound, how does the IC50 read?
A: The IC50 was 60 nM.
